Data set [1] has as its system Mycobacterium tuberculosis. Kind of data set: Inhibitory activity against Mycobacterium tuberculosis H37Rv. Format: functional.
A further data set deals with P388. Kind of data set: Cytotoxicity against P388 murine leukemia cell line at 100-200 uM. Format: functional. To be noted: Mus musculus, read-out: ED50 (the source's name).
A short description of data set [2]: Dissociation constant, pKa of the compound. Type of data set: physicochemical.
Data set [3] in a line: Therapeutic index (ED50/MIC50). Type of data set: cell-based. Conditions: mouse, P388 cells; read-out: Ratio ED50/MIC50.

This note sets out measurements from ChEMBL document CHEMBL1148589, “Rationally designed nucleoside antibiotics that inhibit siderophore biosynthesis of Mycobacterium tuberculosis” (J Med Chem, 2006).

The term MIC50 denotes the lowest concentration that inhibits either 50% of growth or 50% of the strains tested, depending on the study. The MIC99 is an inhibitory concentration at the 99% level, which refers to growth in some studies and to a panel of isolates in others. A lower MIC99 goes with higher susceptibility. What is called pKa is the pH at which an ionisable group is half protonated.

Values after ≈ are worked out from the molar mass of the structure shown.

For `Nc1ncnc2c1ncn2[C@@H]1O[C@H](COS(=O)(=O)NC(=O)c2ccccc2O)[C@@H](O)[C@H]1O`, in data set [1], the MIC50 was determined as 0.091 µM (≈ 0.0424 µg/mL) and the MIC99 stood at 0.29 µM (≈ 0.135 µg/mL). Also, the EC50 with P388 is above 100 µg/mL.
For `Nc1ncnc2c1ncn2[C@@H]1O[C@H](COS(=O)(=O)NCc2ccccc2O)[C@@H](O)[C@H]1O`, in data set [2], the pKa came out at 8.5. In data set [1], the MIC50 is above 100 µM and the MIC99 was above 100 µM. For the same compound, the EC50 with P388 was above 100 µg/mL.
In data set [1], `Nc1ccccc1C(=O)NS(=O)(=O)OC[C@H]1O[C@@H](n2cnc3c(N)ncnc32)[C@H](O)[C@@H]1O` came in with an MIC50 of 30.9 µM (≈ 14.4 µg/mL) and an MIC99 above 100 µM. Further, the EC50 in the data set with P388 is above 100 µg/mL.
As for `NNC(=O)c1ccncc1` [ISONIAZID], the MIC99 in data set [1] is 0.18 µM (≈ 0.0247 µg/mL).
In data set [2], `Nc1ncnc2c1ncn2[C@@H]1O[C@H](COP(=O)(O)CC(=O)c2ccccc2O)[C@@H](O)[C@H]1O` displayed a pKa of 2. Moreover, in data set [1], the MIC50 is above 100 µM and the MIC99 is above 100 µM. Besides, in the data set on P388, the EC50 is above 100 µg/mL.
For the compound `Nc1ncnc2c1ncn2[C@@H]1O[C@H](Cn2cc(C(=O)c3ccccc3O)nn2)[C@@H](O)[C@H]1O`, in data set [1], the MIC50 is above 100 µM and the MIC99 is above 100 µM. Further, the EC50 in the data set on P388 was above 100 µg/mL.
Take `Nc1ncnc2c1ncn2[C@@H]1O[C@H](CNS(=O)(=O)NC(=O)c2ccccc2O)[C@@H](O)[C@H]1O`: the selectivity ratio in data set [3] is above 900. In data set [1], the MIC50 came out at 0.077 µM (≈ 0.0358 µg/mL) and the MIC99 is 0.19 µM (≈ 0.0884 µg/mL). In addition, the EC50 in the data set on P388 was above 100 µg/mL.
For the compound `Nc1ncnc2c1ncn2[C@@H]1O[C@H](COS(=O)(=O)NC(=O)c2ccccc2)[C@@H](O)[C@H]1O`, the pKa in data set [2] was found to be 2.8. In data set [1], the MIC50 came to 4.5 µM (≈ 2.03 µg/mL) and the MIC99 is 12.5 µM (≈ 5.63 µg/mL). Moreover, the EC50 in the data set on P388 is above 100 µg/mL.
